This note sets out measurements from patent publication US4619929A, “Phenylpiperazine derivatives of hetarylphenols and hetarylanilines, their preparation, and therapeutic agents containing these compounds” (BASF Aktiengesellschaft, priority 1981, dated 1986).

The structures appear in SMILES notation. Where two headings read alike, the source gives them in different places.

Experiment [1] in a line: Hypotensive action on rats under urethane narcosis, blood pressure measured in the carotid artery (ED 20%). It is filed as in vivo, Sprague-Dawley rats. The conditions noted are these: for Hypotensive effect R.A. (relative activity; chlorpromazine = 1.00) / ED20: rat; for Separation between sedative action and hypotensive action versus chlorpromazine: in words; for Hypotensive action in words: blood pressure lowering doses versus chlorpromazine: narcotized rats; for Hypotensive side effect, in words: versus chlorpromazine. The method, then:
The blood pressure was measured in the carotid artery. The substance was administered either by introduction into a jugular vein (as an aqueous solution, at the rate of 1 ml/kg) or intraperitoneally as a suspension in tragacanth (at the rate of 10 ml/kg). The ED 20%, i.e. the dose which produces a 20% lowering of the blood pressure, was determined from the linear regression of log dose (mg/kg) and relative lowering of the blood pressure (Δ %).

The nature of experiment [2]: Sedative action: orientation hypermotility of mice induced by a new environment (ED 50%). The settings on record: for Sedative effect R.A. (relative activity; chlorpromazine = 1.00) / ED50: mouse, oral administration; for Inhibition of the orientation hypermotility of mice (sedative-neuroleptic action), in words / Sedative action compared with chlorpromazine, in words: mice. It is filed as in vivo, female NMRI mice. Here is the method: The substance was administered orally to 4-8 groups each comprising 3 female NMRI mice. The orientation hypermotility induced by a new environment was determined photoelectrically, 30 minutes after administration of the substance, over a period of 30 minutes. The ED 50%, i.e. the dose which produces 50% reduction in orientation hypermotility compared to placebo-treated control […], is determined.

[3] abbreviates: Table 1, quotient defined by formula drawing 8 (sedative ED 50% mouse oral, hypotensive ED 20% rat i.v.).
Where [4] appears, read: Table 1, intravenous administration.
The mark [5] stands for this setting: Table 1, intravenous administration, read-out: Hypotensive effect ED 20% (dose which reduces the blood pressure by 20%).
Setting [6] is: Table 1, read-out: Sedative effect ED 50% (dose which reduces the motility by 50%).
[7] abbreviates: Table 2, defined by formula drawing 9, hypotensive effect i.v.
The mark [8] stands for this setting: Table 2, intravenous (i.v.), read-out: Hypotensive effect ED 20%.
Setting [9] is: Table 2, read-out: Sedative effect ED 50%.
[10] abbreviates: Table 2, defined by formula drawing 9, hypotensive effect i.p.
[11] abbreviates: Table 2, intraperitoneal (i.p.).
Setting [12] is: ip, Table 2, intraperitoneal (i.p.), read-out: Hypotensive effect ED 20%.

Turning to `COc1ccccc1N1CCN(CCCOc2ccccc2-c2nnco2)CC1` [Example 1], the Q in experiment [1] (setting [3]) was 2,050. Moreover, in experiment [1] (setting [4]), the “Hypotensive effect R.A. (relative activity; chlorpromazine = 1.00)” value was found to be 3.25. In experiment [1] (setting [5]), the ED20 was determined as 0.008 mg/kg. Besides, in experiment [1], the “Separation between sedative action and hypotensive action versus chlorpromazine” value is “substantially greater”; the “Hypotensive action in words: blood pressure lowering doses versus chlorpromazine” value is given as “significantly lower than in the case of chlorpromazine”. The “Sedative effect R.A. (relative activity; chlorpromazine = 1.00)” value in experiment [2] (Table 1) amounted to 0.13. For the same compound, in experiment [2] (setting [6]), the ED50 worked out at 16.4 mg/kg.
Compound `COc1ccccc1N1CCN(CCCOc2ccccc2-c2nnc(C)o2)CC1` [Example 3, 1-[2-(5-Methyl-1,3,4-oxadiazol-2-yl)-phenoxy]-3-[4-(2-methoxyphenyl)-piperazin-1-yl]-propane] yielded a Q in experiment [1] (setting [3]) of 534. For the same compound, the “Hypotensive effect R.A. (relative activity; chlorpromazine = 1.00)” value in experiment [1] (setting [4]) is recorded as 0.68. In experiment [1] (setting [5]), the ED20 is 0.0384 mg/kg. The “Separation between sedative action and hypotensive action versus chlorpromazine” value in experiment [1] is listed as “substantially greater”. The “Sedative effect R.A. (relative activity; chlorpromazine = 1.00)” value in experiment [2] (Table 1) worked out at 0.10. For the same compound, the ED50 in experiment [2] (setting [6]) came to 20.5 mg/kg.
`COc1ccccc1N1CCN(CCCOc2cccc(-c3nnco3)c2)CC1` [Example 6, 1-[3-(1,3,4-Oxadiazol-2-yl)-phenoxy]-3-[4-(2-methoxyphenyl)-piperazin-1-yl]-propane] yielded a Q in experiment [1] (setting [3]) of 417. Further, the “Hypotensive effect R.A. (relative activity; chlorpromazine = 1.00)” value in experiment [1] (setting [4]) was found to be 3.38. Also, in experiment [1] (setting [5]), the ED20 was determined as 0.0077 mg/kg. Besides, in experiment [1], the “Separation between sedative action and hypotensive action versus chlorpromazine” value is on record as “substantially greater”; the “Hypotensive action in words: blood pressure lowering doses versus chlorpromazine” value is given as “significantly lower than in the case of chlorpromazine”. For the same compound, the “Sedative effect R.A. (relative activity; chlorpromazine = 1.00)” value in experiment [2] (Table 1) stood at 0.66. Besides, the ED50 in experiment [2] (setting [6]) amounted to 3.21 mg/kg.
Take `COc1ccccc1N1CCN(CCCOc2cccc(-c3nnc(C)o3)c2)CC1` [Example 7, 1-[3-(5-Methyl-1,3,4-oxadiazol-2-yl)-phenoxy]-3-[4-(2-methoxyphenyl)-piperazin-1-yl]-propane]: in experiment [1] (setting [3]), the Q is recorded as 312. Moreover, the “Hypotensive effect R.A. (relative activity; chlorpromazine = 1.00)” value in experiment [1] (setting [4]) was 2.17. Besides, the ED20 in experiment [1] (setting [5]) came to 0.0012 mg/kg. For the same compound, in experiment [1], the “Separation between sedative action and hypotensive action versus chlorpromazine” value is “substantially greater”; the “Hypotensive action in words: blood pressure lowering doses versus chlorpromazine” value was “significantly lower than in the case of chlorpromazine”. Also, the “Sedative effect R.A. (relative activity; chlorpromazine = 1.00)” value in experiment [2] (Table 1) was found to be 0.56. Moreover, in experiment [2] (setting [6]), the ED50 was 3.74 mg/kg.
With `Fc1ccc(N2CCN(CCCOc3ccc(-n4ccnc4)cc3)CC2)cc1` [Example 10], the Q in experiment [1] (setting [7]) is reported as 3.0. Also, the “Hypotensive effect R.A. (relative activity; chlorpromazine = 1.00)” value in experiment [1] (Table 2, intravenous (i.v.)) came to 0.03. For the same compound, the ED20 in experiment [1] (setting [8]) turned out to be 1 mg/kg. Also, the “Hypotensive side effect, in words” value in experiment [1] is “non-hypotensive action up to doses of 1 or 10 mg/kg”. Further, the “Sedative effect R.A. (relative activity; chlorpromazine = 1.00)” value in experiment [2] (Table 2) is 0.69. Also, the ED50 in experiment [2] (setting [9]) was determined as 3.05 mg/kg. For the same compound, in experiment [2], the “Inhibition of the orientation hypermotility of mice (sedative-neuroleptic action), in words” value (“Inhibition” for short) is listed as “powerful inhibition of the orientation hypermotility of mice” and the “Sedative action compared with chlorpromazine, in words” value is given as “almost achieved”.
In experiment [1] (setting [3]), `COc1ccccc1N1CCN(CCCOc2ccc(-c3nnco3)cc2)CC1` [Example 11, 1-[4-(1,3,4-Oxadiazol-2-yl)-phenoxy]-3-[4-(2-methoxyphenyl)-piperazin-1-yl]-propane] had a Q of 307. Also, in experiment [1] (setting [4]), the “Hypotensive effect R.A. (relative activity; chlorpromazine = 1.00)” value is given as 3.71. Besides, in experiment [1] (setting [5]), the ED20 stood at 0.007 mg/kg. In experiment [1], the “Separation between sedative action and hypotensive action versus chlorpromazine” value was “substantially greater”; the “Hypotensive action in words: blood pressure lowering doses versus chlorpromazine” value is listed as “significantly lower than in the case of chlorpromazine”. For the same compound, the “Sedative effect R.A. (relative activity; chlorpromazine = 1.00)” value in experiment [2] (Table 1) is given as 0.98. The ED50 in experiment [2] (setting [6]) worked out at 2.15 mg/kg.
As for `Fc1ccc(N2CCN(CCCNc3ccc(-n4cncn4)cc3)CC2)cc1` [Example 14, 1-[4-(1,2,4-Triazol-1-yl)-phenylamino]-3-[4-(4-fluorophenyl)-piperazin-1-yl]-propane], in experiment [1] (setting [10]), the Q is 0.08. Moreover, the “Hypotensive effect R.A. (relative activity; chlorpromazine = 1.00)” value in experiment [1] (setting [11]) was 0.02. Further, the ED20 in experiment [1] (setting [12]) worked out at 10 mg/kg. Also, the “Hypotensive side effect, in words” value in experiment [1] is given as “non-hypotensive action up to doses of 1 or 10 mg/kg”. For the same compound, in experiment [2] (Table 2), the “Sedative effect R.A. (relative activity; chlorpromazine = 1.00)” value stood at 2.59. In addition, the ED50 in experiment [2] (setting [9]) was 0.818 mg/kg. Besides, in experiment [2], the “Inhibition” value is recorded as “powerful inhibition of the orientation hypermotility of mice” and the “Sedative action compared with chlorpromazine, in words” value is “clearly surpassed”.
With `Fc1ccc(N2CCN(CCCNc3ccc(-n4ccnc4)cc3)CC2)cc1` [Example 15, 1-[4-(Imidazol-1-yl)-phenylamino]-3-[4-(4-fluorophenyl)-piperazin-1-yl]-propane], the Q in experiment [1] (setting [7]) worked out at 0.16. Also, the “Hypotensive effect R.A. (relative activity; chlorpromazine = 1.00)” value in experiment [1] (Table 2, intravenous (i.v.)) is given as 0.003. Further, the ED20 in experiment [1] (setting [8]) amounted to 10 mg/kg. Moreover, in experiment [1], the “Hypotensive side effect, in words” value is given as “non-hypotensive action up to doses of 1 or 10 mg/kg”. In experiment [2] (Table 2), the “Sedative effect R.A. (relative activity; chlorpromazine = 1.00)” value turned out to be 1.3. For the same compound, the ED50 in experiment [2] (setting [9]) stood at 1.62 mg/kg. For the same compound, in experiment [2], the “Inhibition” value is on record as “powerful inhibition of the orientation hypermotility of mice” and the “Sedative action compared with chlorpromazine, in words” value was “clearly surpassed”.
For the compound `CN(C)CCCN1c2ccccc2Sc2ccc(Cl)cc21` [chlorpromazine, reference compound], the Q is reported as 81 in experiment [1] (setting [3]), 12.9 in experiment [1] (setting [10]) and 81.0 in experiment [1] (setting [7]). The “Hypotensive effect R.A. (relative activity; chlorpromazine = 1.00)” value in experiment [1] (setting [4]) is on record as 1.00; in experiment [1] (setting [11]), 1.0; in experiment [1] (Table 2, intravenous (i.v.)), 1.0. The values for the ED20 in experiment [1] (setting [5]), in experiment [1] (setting [8]) and in experiment [1] (setting [12]) were 0.026 mg/kg, 0.026 mg/kg and 0.164 mg/kg, respectively. For the same compound, in experiment [1], the “Hypotensive side effect, in words” value is “observed even at low doses”. For the same compound, the “Sedative effect R.A. (relative activity; chlorpromazine = 1.00)” value in experiment [2] (Table 1) was 1.00; in experiment [2] (Table 2), 1.0. The ED50 in experiment [2] (setting [9]) turned out to be 2.11 mg/kg.
